Assay results: patent US20040029965A1, “Formulations for reducing or eliminating toxicity of enviromental hormones containing ursodeoxycholic acid” (priority 2000, published 2004)

Experiments:
Assay type in all cases: in vivo
C57B1/6J mice [1] = experiment: Blood (serum) biochemical changes in mice by a single subcutaneous injection of TCDD
Protocol: Male C57B1/6J mice of 5 weeks old having the average weight of 18-22 g which had been bred in CRJ (Charles River in Japan) were purchased and used in this example as experimental animals. Those mice were acclimated under the constant breeding condition, i.e. the temperature of 24±1° C., the humidity of 60±10% and the light and darkness cycle of 12 hours, for one week and thereafter, utilized in the experiment.
(§1) 2,3,7,8-tetrachlorodibenzo-p-dioxin (TCDD) dissolved in toluene (purity of 95% or more as a result of gas chromatography analysis), manufactured by Chem. Services Inc. in USA, was volatilized with nitrogen to obtain powder. The obtained powder was dissolved in a mixed solvent containing acetone and corn oil with a volume ratio of 1:6. The resulting solution each containing 110, 27.5 and 6.9 μg/kg of TCDD was subcutaneously injected to mice at a volume of 5 ml per body weight. […] The mice were supplied with the feed from 10 days before (pre-administration) to 60 days after administration of TCDD (post-administration).
(§2) Upon completion of the experiment for 60 days, the experimental animals were fasted for 24 hours and anesthetized with ether. Then, they were abdominally incised and blood was gathered from abdominal vena cava. They were sacrificed by the release of blood. Liver, kidneys, testes and epididymides were extracted and all the extracted organs were weighed. Only the testes were separately kept and observed under optical and electron microscopes. For biochemical finding test, serum was separated from blood with a centrifuge and the separated serum was analyzed with an automated blood biochemical analyzer, Dimension (Dupont, USA). Blood was put to another blood gathering bottle and then, analyzed with an automated blood cell analyzer, Celldyn (Abbott, USA).
The results are expressed as Mean±Standard Deviation values. For statistical analysis of the body weight, feed and water uptake, biochemical findings, hematological findings and the weight of organ in an acute toxicity test, verification was performed by one way analysis of variance (ANOVA) in case of equal distribution. In case significance was recognized in ANOVA, the Student's t-test was performed in the levels of p<0.05 and p<0.01.
For biochemical findings in the serum, the levels of glucose (GLU), GOT, GPT, Triglyceride (TG), high density lipoprotein (HDL-C), low density lipoprotein (LDL-C) and alkaline phosphatase (ALP) in serum were measured and the results are shown in the following.

C57B1/6J mice [2] = experiment: Optical microscopy of testes (histopathological findings)
Protocol: as §1, §2
The extracted testes were fixed in 10% neutralized formalin buffer for 24 hours and washed with the flowing water. It was subsequently dehydrated with ethanol and cleared with xylene and then, embedded with paraffin. It was sectioned with microtome (microm is HM 440E) to a thickness of 2-3 μm and then, double stained with hematoxylin and eosin to observe under an optical microscope.

C57B1/6J mice [3] = experiment: Electron microscopy of testes (cellular microstructures)
Protocol: as §1
as §2, with “(Abbott, USA). […]” for “(Abbott, USA).”

[4] = system: Ovariectomized female B6C3F1 mice; experiment: Uterus weight changes by bisphenol A (uterine proliferation); conditions: UDCA 2 mg/day alone, s.c. for 4 days
Protocol: Ovariectomized female B6C3F1 mice of 5 weeks old, the average weight of which was 18 to 22 g and had been bred in CRJ, were purchased. They were acclimated under the constant breeding conditions, i.e. the constant temperature of 24±1° C., the humidity of 60±10% and the light and darkness cycle of 12 hours, for one week and then, utilized in the experiment. The animals were supplied with solid feed purchased from Purina and supplied with water ad libitum. After acclimation, test materials dissolved in corn oil were subcutaneously injected once a day for 4 days. The test materials used herein, stock solutions of bisphenol A and UDCA were prepared using ethanol. 2 mg of bisphenol A dissolved in 0.2 ml of corn oil was administered to the mice alone or in combination with UDCA once a day. The administration dose of UDCA was 0.2 or 2.0 mg, and corn oil was administered to the solvent control.
The results are expressed as Mean±Standard Deviation values. ANOVA was performed to evaluate the mean distribution of administered groups. In case that the significance was recognized in ANOVA, the Student's t-test was carried out in the levels of p<0.05 and p<0.01.

[5] = TCDD 6.9 μg/kg + UDCA 0.125 wt %
[6] = TCDD 6.9 μg/kg + UDCA 0.25 wt %
[7] = TCDD 27.5 μg/kg + UDCA 0.125 wt %
[8] = TCDD 27.5 μg/kg + UDCA 0.25 wt %
[9] = TCDD 27.5 μg/kg + UDCA 0.5 wt %

## Clc1cc2c(cc1Cl)Oc1cc(Cl)c(Cl)cc1O2 [TCDD, 2,3,7,8-tetrachlorodibenzo-p-dioxin]
C57B1/6J mice [1]; TCDD 6.9 μg/kg alone
  ALP: 69.67 ± 8.80 IU/l
  GLU: 96.00 ± 15.15 mg/dL
  GOT: 55.16 ± 6.65 IU/l
  GPT: 21.66 ± 5.39 IU/l
  HDL-C: 39.29 ± 9.38 mg/dL
  LDL-C: 24.43 ± 11.81 mg/dL
  TG: 76.14 ± 14.03 mg/dL
C57B1/6J mice [1]; TCDD 27.5 μg/kg alone
  ALP: 65.4 ± 19.05 IU/l
  GLU: 28.20 ± 8.23 mg/dL
  GOT: 230.40 ± 72.90 IU/l
  GPT: 70.4 ± 23.46 IU/l
  HDL-C: 21.80 ± 6.76 mg/dL
  LDL-C: 43.80 ± 14.99 mg/dL
  TG: 92.67 ± 16.79 mg/dL
C57B1/6J mice [2]; TCDD 27.5 μg/kg alone, FIG. 2
  seminiferous tubules, optical microphotograph: remarkably reduced spermatogenesis was observed
C57B1/6J mice [3]; TCDD 27.5 μg/kg alone, FIG. 9
  heads of sperms, electron microphotograph: Heads of sperms were frequently observed in cytoplasmic vacuoles of Sertoli cells

## C[C@H](CCC(=O)O)[C@H]1CC[C@H]2[C@@H]3[C@@H](O)C[C@@H]4C[C@H](O)CC[C@]4(C)[C@H]3CC[C@]12C [UDCA, 3α, 7β-dihydroxy-5β-cholanoic acid]
C57B1/6J mice [1]; [5]
  ALP: 66.78 ± 7.21 IU/l
  GLU: 128.00 ± 27.26 mg/dL
  GOT: 49.80 ± 2.74 IU/l
  GPT: 23.50 ± 8.32 IU/l
  HDL-C: 45.67 ± 2.74 mg/dL
  LDL-C: 14.56 ± 6.28 mg/dL
  TG: 79.56 ± 1129 mg/dL
C57B1/6J mice [1]; [6]
  ALP: 72.05 ± 6.63 IU/l
  GLU: 104.60 ± 24.87 mg/dL
  GOT: 57.30 ± 4.83 IU/l
  GPT: 24.00 ± 6.39 IU/l
  HDL-C: 46.30 ± 5.08 mg/dL
  LDL-C: 21.20 ± 5.25 mg/dL
  TG: 75.90 ± 11.55 mg/dL
C57B1/6J mice [1]; TCDD 6.9 μg/kg + UDCA 0.5 wt %
  ALP: 85.24 ± 10.28 IU/l
  GLU: 125.50 ± 14.98 mg/dL
  GOT: 47.11 ± 1.9 IU/l
  GPT: 18.78 ± 5.07 IU/l
  HDL-C: 44.83 ± 2.04 mg/dL
  LDL-C: 28.33 ± 4.63 mg/dL
  TG: 84.20 ± 7.66 mg/dL
C57B1/6J mice [1]; [7]
  ALP: 75.14 ± 18.33 IU/l
  GLU: 55.22 ± 9.34 mg/dL
  GOT: 75.22 ± 6.38 IU/l
  GPT: 54.67 ± 23.28 IU/l
  HDL-C: 34.78 ± 4.35 mg/dL
  LDL-C: 2.40 ± 1.14 mg/dL
  TG: 98.78 ± 17.14 mg/dL
C57B1/6J mice [1]; [8]
  ALP: 79.63 ± 6.07 IU/l
  GLU: 82.44 ± 13.04 mg/dL
  GOT: 58.67 ± 5.54 IU/l
  GPT: 42.11 ± 22.05 IU/l
  HDL-C: 37.44 ± 3.64 mg/dL
  LDL-C: 4.29 ± 4.03 mg/dL
  TG: 97.00 ± 17.68 mg/dL
C57B1/6J mice [1]; [9]
  ALP: 80.57 ± 14.52 IU/l
  GLU: 64.22 ± 9.35 mg/dL
  GOT: 96.67 ± 31.63 IU/l
  GPT: 45.38 ± 21.74 IU/l
  HDL-C: 47.00 ± 7.66 mg/dL
  LDL-C: 15.33 mg/dL
  TG: 133.33 ± 13.17 mg/dL
[4]
  Mean weight of uterus ± SD: 6.96 ± 1.34
C57B1/6J mice [2]; TCDD 27.5 μg/kg + 0.5% by weight of UDCA, FIG. 3
  seminiferous tubules, optical microphotograph: normal seminiferous tubules were observed
C57B1/6J mice [2]; group exposed to UDCA (with TCDD)
  histopathological findings of testes under an optical microscope: seminiferous tubules were found to have the similar shape to that of the solvent control
C57B1/6J mice [3]; TCDD 27.5 μg/kg + 0.5% by weight of UDCA, FIG. 10
  heads of sperms, electron microphotograph: Normal shapes of sperm heads were retained
